The record followed here is DBAASP.

In brackets after ≈: the same amount, converted by molar mass.

Experiment in all cases: ≥ marks a high value that may be exact or a test limit, other limits are often not marked, values filed in µg/mL are converted to µM
Test [1] deals with Candida albicans NCYC 1467.
Test [2] concerns Enterococcus faecalis NCTC 12697.
For test [3], the system named is Escherichia coli NCTC 10418.
In test [4] the test system is Klebsiella pneumoniae ATCC 43816.
The subject of test [5] is Pseudomonas aeruginosa ATCC 27853.
The subject of test [6] is Staphylococcus aureus NCTC 10788.
Test [7] has as its system Staphylococcus aureus NCTC 12493.
Test [8] concerns Acinetobacter baumannii KCTC 2508.
Test [9] relates to Klebsiella pneumoniae KCTC 2208.
The test system of test [10] is Bacillus subtilis KCTC 1998.
The test system of test [11] is Candida albicans KCTC 7270.
Test [12] concerns Escherichia coli ATCC 25922.
Test [13] deals with Escherichia coli CCARM 1229.
In test [14] the test system is Escherichia coli CCARM 1238.
Test [15] deals with Listeria monocytogenes KCTC 3710.
The subject of test [16] is Pseudomonas aeruginosa 4007.
For test [17], the system named is Pseudomonas aeruginosa 4891.
In test [18] the test system is Salmonella typhimurium KCTC 1926.
For test [19], the system named is Staphylococcus aureus ATCC 25923.
In test [20] the test system is Staphylococcus aureus CCARM 3090.
In test [21] the test system is Staphylococcus aureus CCARM 3518.
For test [22], the system named is Trichosporon beigelii KCTC 7707.
In test [23] the test system is Bacillus cereus ATCC 14579.
Test [24] deals with Bacillus subtilis ATCC 23857.
The subject of test [25] is Candida albicans ATCC 90028.
The subject of test [26] is Cryptococcus neoformans ATCC 28957.
The test system of test [27] is Fusarium oxysporum f.sp. vasinfectum.
Test [28] relates to Fusarium oxysporum.
Test [29] has as its system Fusarium solani.
For test [30], the system named is Pectobacterium carotovorum.
Test [31] has as its system Pseudomonas syringae pv. tabaci.
Test [32] has as its system Ramulariopsis gossypii.
For test [33], the system named is Rhizoctonia solani.
In test [34] the test system is Trichoderma asperellum.
The test system of test [35] is Xanthomonas campestris pv. citri.

Broadly, the MIC is the lowest concentration that inhibits growth of the organism. A higher MIC goes with a less susceptible organism. With `CC(C)C[C@H](NC(=O)[C@H](C)N)C(=O)N[C@@H](Cc1c[nH]c2ccccc12)C(=O)N[C@@H](CCCCN)C(=O)N[C@@H](CO)C(=O)N[C@@H](CC(C)C)C(=O)N[C@@H](CC(C)C)C(=O)N[C@@H](CCCCN)C(=O)N[C@@H](CC(N)=O)C(=O)N[C@H](C(=O)NCC(=O)N[C@@H](CCCCN)C(=O)N[C@@H](C)C(N)=O)C(C)C` [ALWKSLLKNVGKA], the MIC in test [1] was at least 32 µM; in [2] it was at least 256 µM; in [3], at least 64 µM; in test [4] it was at least 128 µM; in test [5], 128 µM (≈ 183 µg/mL); in test [6], at least 64 µM. Moreover, the minimum inhibitory concentration (MIC) in test [7] is at least 128 µM.
`CC[C@H](C)[C@H](N)C(=O)N[C@@H](C)C(=O)N[C@@H](CCCN=C(N)N)C(=O)N[C@@H](CCCN=C(N)N)C(=O)N[C@@H](C)C(=O)N[C@@H](CC(C)C)C(=O)N[C@@H](CCCCN)C(=O)N[C@@H](CCCCN)C(=O)N[C@@H](C)C(=O)N[C@@H](CCCCN)C(=O)N[C@@H](CCCN=C(N)N)C(=O)N[C@@H](C)C(=O)N[C@@H](C)C(=O)N[C@@H](Cc1cnc[nH]1)C(=O)N[C@@H](CCCCN)C(=O)N[C@H](C(=O)N1CCC[C@H]1C(=O)N[C@@H](C)C(=O)N[C@@H](C)C(=O)N[C@@H](CCCCN)C(=O)N[C@@H](CCCCN)C(=O)N[C@@H](Cc1ccccc1)C(=O)N[C@@H](C)C(=O)N[C@@H](CCCN=C(N)N)C(=O)N[C@@H](CCCN=C(N)N)C(N)=O)[C@@H](C)CC` [IARRALKKAKRAAHKIPAAKKFARR]: the MIC in test [8] is 4 µM (≈ 11.4 µg/mL); in [9], 2 µM (≈ 5.71 µg/mL); in test [5], 8 µM (≈ 22.9 µg/mL).
For the compound `CC[C@H](C)[C@H](N)C(=O)N[C@@H](C)C(=O)N[C@@H](CCCN=C(N)N)C(=O)N[C@@H](CCCN=C(N)N)C(=O)N[C@@H](C)C(=O)N[C@@H](CC(C)C)C(=O)N[C@@H](CCCCN)C(=O)N[C@@H](CCCCN)C(=O)N[C@@H](C)C(=O)N[C@@H](CCCCN)C(=O)N[C@@H](CCCN=C(N)N)C(=O)N[C@@H](C)C(=O)N[C@@H](C)C(=O)N[C@@H](Cc1cnc[nH]1)C(=O)N[C@@H](CCCCN)C(=O)N[C@H](C(=O)N1CCC[C@H]1C(=O)N[C@@H](CCC(N)=O)C(=O)N[C@@H](CS)C(=O)N[C@@H](CCCCN)C(=O)N[C@@H](CCCCN)C(=O)N[C@@H](Cc1ccccc1)C(=O)NCC(=O)N[C@@H](CCCN=C(N)N)C(=O)N[C@@H](CCCN=C(N)N)C(N)=O)[C@@H](C)CC` [IARRALKKAKRAAHKIPQCKKFGRR], the MIC in test [8] was at least 32 µM; in [9] it was 8 µM (≈ 23.5 µg/mL); in test [5] it was 2 µM (≈ 5.86 µg/mL).
As to `CC[C@H](C)[C@H](NC(=O)[C@H](CC(C)C)NC(=O)[C@H](CCCCN)NC(=O)[C@@H](NC(=O)[C@H](C)NC(=O)[C@H](CCC(=O)O)NC(=O)[C@H](Cc1cnc[nH]1)NC(=O)[C@@H](NC(=O)CNC(=O)[C@H](CCC(N)=O)NC(=O)[C@H](Cc1ccccc1)NC(=O)[C@@H](NC(=O)[C@H](CCCCN)NC(=O)[C@H](CCCCN)NC(=O)[C@H](CC(C)C)NC(=O)[C@H](C)NC(=O)[C@H](CC(N)=O)NC(=O)[C@@H](N)CC(C)C)C(C)C)[C@@H](C)CC)[C@@H](C)CC)C(N)=O` [LNALKKVFQGIHEAIKLI], the MIC in test [10] was determined as 8 µM (≈ 16.3 µg/mL); in test [11], 16 µM (≈ 32.6 µg/mL); in [12], 4 µM (≈ 8.14 µg/mL); in test [13], 4 µM (≈ 8.14 µg/mL); in test [14], 4 µM (≈ 8.14 µg/mL); in test [15], 8 µM (≈ 16.3 µg/mL). The MIC in test [16] was found to be 4 µM (≈ 8.14 µg/mL); in test [17], 8 µM (≈ 16.3 µg/mL); in [5] it was 4 µM (≈ 8.14 µg/mL); in test [18], 4 µM (≈ 8.14 µg/mL); in [19] it was 8 µM (≈ 16.3 µg/mL); in [20], 8 µM (≈ 16.3 µg/mL). Further, the MIC was determined as 8 µM (≈ 16.3 µg/mL) in test [21] and 16 µM (≈ 32.6 µg/mL) in test [22].
For the compound `CC[C@H](C)[C@H](NC(=O)[C@@H](NC(=O)[C@H](Cc1c[nH]c2ccccc12)NC(=O)[C@H](CCCCN)NC(=O)[C@H](Cc1ccccc1)NC(=O)[C@@H](NC(=O)[C@H](CCCCN)NC(=O)[C@@H](NC(=O)[C@H](CC(C)C)NC(=O)[C@H](CCCCN)NC(=O)[C@H](CCCN=C(N)N)NC(=O)CNC(=O)[C@H](CC(C)C)NC(=O)[C@H](CCCCN)NC(=O)[C@H](Cc1ccccc1)NC(=O)CN)C(C)C)C(C)C)[C@@H](C)CC)C(N)=O` [GFKLGRKLVKVFKWII], the minimal inhibitory concentration (MIC) was found to be 1 µM (≈ 1.93 µg/mL) in test [23]; 1 µM (≈ 1.93 µg/mL) in [24]; 1 µM (≈ 1.93 µg/mL) in [25]; 1 µM (≈ 1.93 µg/mL) in test [26]; 0.5 µM (≈ 0.966 µg/mL) in test [12]; 0.5 µM (≈ 0.966 µg/mL) in [27]. For the same compound, the MIC in [28] worked out at 0.5 µM (≈ 0.966 µg/mL); in [29], 0.5 µM (≈ 0.966 µg/mL); in test [30], 0.5 µM (≈ 0.966 µg/mL); in test [5], 3.33 µM (≈ 6.43 µg/mL); in test [31] it was 1 µM (≈ 1.93 µg/mL); in [32], 0.5 µM (≈ 0.966 µg/mL). For the same compound, the MIC was found to be 1 µM (≈ 1.93 µg/mL) in test [33], 0.83 µM (≈ 1.6 µg/mL) in test [19], 1 µM (≈ 1.93 µg/mL) in test [34] and 1 µM (≈ 1.93 µg/mL) in [35].
On to `CC[C@H](C)[C@H](NC(=O)[C@H](CCCCN)NC(=O)CN)C(=O)N[C@@H](CC(C)C)C(=O)N[C@@H](CCCCN)C(=O)N[C@@H](Cc1ccc(O)cc1)C(=O)N[C@@H](CC(C)C)C(=O)N[C@@H](CC(C)C)C(=O)N[C@@H](Cc1ccc(O)cc1)C(=O)N[C@@H](CC(C)C)C(=O)N[C@@H](CC(C)C)C(=O)N[C@@H](CCCN=C(N)N)C(=O)N[C@@H](CCCCN)C(=O)N[C@@H](Cc1ccc(O)cc1)C(=O)N[C@@H](C)C(=O)N[C@@H](CC(N)=O)C(=O)N[C@@H](CC(C)C)C(=O)N[C@H](C(=O)N[C@H](C(=O)N[C@@H](CCCN=C(N)N)C(N)=O)[C@@H](C)CC)[C@@H](C)CC` [GKILKYLLYLLRKYANLIIR], for which the MIC in test [23] is 13.3 µM (≈ 32.8 µg/mL); in test [24], 4 µM (≈ 9.86 µg/mL); in test [25] it was 1 µM (≈ 2.46 µg/mL); in test [26] it was 1 µM (≈ 2.46 µg/mL); in test [12], 10.7 µM (≈ 26.3 µg/mL); in test [27], 0.83 µM (≈ 2.05 µg/mL). For the same compound, the minimal inhibitory concentration (MIC) in test [28] amounted to 2 µM (≈ 4.93 µg/mL); in [29], 1 µM (≈ 2.46 µg/mL); in test [30], 16 µM (≈ 39.4 µg/mL); in test [5] it was 16 µM (≈ 39.4 µg/mL); in test [31], 4 µM (≈ 9.86 µg/mL); in [32], 0.83 µM (≈ 2.05 µg/mL). The MIC was 1 µM (≈ 2.46 µg/mL) in test [33], 8 µM (≈ 19.7 µg/mL) in [19], 1 µM (≈ 2.46 µg/mL) in [34] and 16 µM (≈ 39.4 µg/mL) in test [35].
